For 88 molecules, melting point results are on record in a melting point compilation (Tetko et al.; mined from patent text by program, amines drawn as free bases though some values may be those of a salt).

SMILES strings stand for the structures.

A word on the melting point: it is the temperature of the solid-liquid transition.

With `CC1CCc2ccc(O)cc2O1` (stereo not drawn), the melting point is 94 to 95 °C.

Molecule `CC(=O)CCC(=O)N1CC1C#N` (stereo not drawn) came in with a melting point of 93 to 94 °C.

In turn, `COC(=O)CCCCCNC(=O)c1cccc(OC)c1O` had a melting point of 69 to 70 °C.

On to `CCCCCCCCCCCCNC(=O)CSCc1cc(C(C)(C)C)c(O)c(C(C)(C)C)c1`, for which the melting point is 43 to 46 °C.

In turn, `CC(C)(C)[C@@H](CO)NC(=O)[C@@H](CC(=O)O)n1ccc(-c2ccc(-c3ccc(C#N)cc3)cc2)c1` returned a melting point of 110 to 112 °C.

Molecule `O=S(=O)(Cl)c1ccccc1CCl` registered a melting point of 43 to 45 °C.

The molecule `COC(=O)c1cc(F)c(C)c(N)c1Cl` came in with a melting point of 51 to 52 °C.

`CC(=O)N1N=C(c2ccncc2)OC1c1ccc(Cl)c([N+](=O)[O-])c1` (stereo not drawn): the melting point was 122 °C.

With `O=C1NC(C(=O)NCCO[N+](=O)[O-])C(c2ccc(Cl)cc2)S1` (stereo not drawn), the melting point was in the range of 125 to 127 °C.

As for `CCOc1ccc(C2=NN(C(=O)c3cccc([N+](=O)[O-])c3)CCC2)cc1OCC`, the melting point was in the range of 119 to 120 °C.

In turn, `O=C(O)CCCCCCNC(=O)C(CS)Cc1ccccc1` (stereo not drawn) gave a melting point of 71 to 73 °C.

For `CC(=O)Nc1ccc(F)c(-c2ccncc2)c1F`, the melting point was in the range of 148 to 150 °C.

In turn, `O=C(NCNC(=O)c1ccccc1C(=O)c1ccccc1)Nc1cccc(C(=O)OCc2ccccc2)c1` registered a melting point of 157 to 159 °C.

In turn, `CC(=O)NC(C#N)NC(=O)c1cc(C)cc(C)c1` (stereo not drawn) showed a melting point of 195 to 197 °C.

On to `COCCN1Cc2c(cnc3c(NC(=O)c4c(Cl)cccc4Cl)cccc23)C1=O`, for which the melting point was 246 °C.

As for `Fc1ccc(Nc2ncnc3cnc(NCC45CCN(CC4)CC5)nc23)cc1Cl`, the melting point lay within 221 to 223 °C.

`CC12CCC3c4ccc(C(=O)O)cc4CCC3C1CCC2C(=O)c1ccc(F)cc1` (stereo not drawn) had a melting point of 251 to 254 °C.

Take `CNc1nc(-c2cccc(-c3cncc(OC)c3)c2)c2cc(OC)c(OC)cc2n1`: the melting point was in the range of 225 to 227 °C.

For the molecule `c1ccc(C2CSC(c3ccccc3)N2)cc1` (mixture of isomers), the melting point turned out to be 120 °C.

In turn, `COc1ccc(S(=O)(=O)NCC2CCN(C[C@H]3COc4ccc(Cl)cc4O3)CC2)cc1OC` displayed a melting point of 99 to 101 °C.

`COc1ccc2c(-c3cnc4[nH]cc(C(=O)N[C@H](C)C(=O)N5CC(C#N)C5)c4n3)nn(C)c2c1` returned a melting point of 220 to 240 °C.

`Cc1cc(Cl)cc(C(=O)Nc2cccc(Cl)n2)n1`: the melting point is 176 °C.

As to `CC1CC(=O)N(CCCCN2C(=O)c3ccccc3C2=O)C1=O` (stereo not drawn), the melting point fell in the range of 79 to 80 °C.

Turning to `CC(COC1CCCCO1)C1CCC2C3CC=C4CC(O)CC(O)C4(C)C3CCC12C` (stereo not drawn), the melting point was 138 to 141 °C.

Regarding `CCN1c2ncc(CCc3ccc4ccccc4c3)cc2C(=O)N(C)c2ccc(F)nc21`, the melting point was 112 to 114 °C.

For the molecule `CCCCN(CC(O)C(Cc1ccccc1)NC(=O)C(C)CS(C)(=O)=O)S(=O)(=O)c1ccc(OC)cc1` (stereo not drawn), the melting point fell in the range of 87 to 92 °C.

`Nc1cc(Oc2cc(Oc3cc(N)cc(C(F)(F)F)c3)cc(C(F)(F)F)c2)cc(C(F)(F)F)c1` yielded a melting point of 82 to 84 °C.

In the case of `CCCCNC(=O)NS(=O)(=O)c1ccccc1S(=O)(=O)OCC(F)(F)F`, the melting point was 140 to 142 °C.

With `O=C(Nc1ccccc1)c1ccc(-c2n[nH]c3c2Cc2ccccc2-3)cc1`, the melting point was 186 to 190 °C.

Consider `CC(=O)c1ccc2nc3ccc(C(=O)O)cc3c(=O)n2c1`, for which the melting point lay in the range of 305 to 309 °C.

In turn, `CCCCCCCCCCCCCCCCc1ccc(S(=O)(=O)Cl)cc1` had a melting point of 35 to 36 °C.

`O=C(c1ccccc1)n1c(=O)c(C(F)(F)F)cn(C2CC(O)C(CO)O2)c1=O` (stereo not drawn) yielded a melting point of 144 to 146 °C.

`C[C@H]1CC[C@H]2C(C)(C)[C@@H](O)CC[C@]23Oc2c(c(OCc4ccccc4)cc4c2CN(C(=O)OC(C)(C)C)C4=O)C[C@]13C` displayed a melting point of 138 to 140 °C.

`COc1ccc(Br)c(C(=O)N2CCN(S(=O)(=O)c3ccccc3F)CC2)c1` showed a melting point of 167 °C.

Take `Cc1cccc(-c2nc3c(o2)C(=O)c2ccccc2C3=O)c1`: the melting point was found to be 255 °C.

For the molecule `COC(=O)CN=C(Cc1ccccc1)N1CC2C(=O)CCC(c3ccccc3)(c3ccccc3)C2C1` (stereo not drawn), the melting point was 147 °C.

Turning to `CCOc1nc(-c2ccc(F)cc2C)c2ccc(=O)n(-c3ccccc3F)c2n1`, the melting point lay within 137 to 139 °C.

In turn, `CCOC(=O)c1c(N)c(Cl)cn1C` displayed a melting point of 48 °C.

Molecule `COC(=O)c1cc(-c2cccc(C(F)(F)F)c2)c(=O)n2c1-c1sccc1SCC2` returned a melting point of 190 to 191 °C.

Consider `O=C(NO)c1ccc2c(c1)CCN(C(=O)C1CC1)C2`, for which the melting point is 90 °C.

For the molecule `COC(=O)CC1CCc2cc(O)ccc2C1=O` (stereo not drawn), the melting point was in the range of 121 to 123 °C.

In turn, `C#CCN(C(C)=O)c1cccc(-c2ccc3nncn3n2)c1` returned a melting point of 195 to 198 °C.

As to `CCCCS(=O)(=O)c1ccccc1C(=O)O`, the melting point is 72.5 to 73.5 °C.

Regarding `Cc1cc(Br)cnc1CCCCNC1=NS(=O)(=O)c2cc(-c3ccccn3)ccc21`, the melting point is 233 to 234 °C.

`O=C(NNc1ccc(Cl)cc1Cl)C(F)(F)F` gave a melting point of 127 to 128 °C.

As for `COc1ccc(-c2nc(C)c(NC(C)=O)[nH]2)cc1`, the melting point was in the range of 202 to 204 °C.

In turn, `COC(=O)C(CC(=S)c1ccc(C)cc1)C(C)=O` (stereo not drawn) had a melting point of 110 to 112 °C.

In turn, `CCC(CC)(OC)c1ccc(Cl)c2nc3n(c12)CCCN3c1ccc(Cl)cc1Cl` displayed a melting point of 124 to 125 °C.

With `Cc1cc(C)cc(OCC(=O)c2ccccc2Br)c1`, the melting point turned out to be 74 °C.

Molecule `CCOC(=O)C(=O)Nc1ccc(Cl)c(C#N)c1` returned a melting point of 182 to 183 °C.

Turning to `CC(C)Oc1cc(Oc2ccc(S(C)(=O)=O)cn2)cc2cc(C3=NCC(CC(N)=O)S3)[nH]c12` (stereo not drawn), the melting point is 212 to 213 °C.

Consider `O=C(O)CCCCNC(=O)Cc1ccc2c(c1)CC(NS(=O)(=O)c1ccc(Cl)cc1)C2` (stereo not drawn), for which the melting point lay within 156 to 158 °C.

In turn, `Cc1nc(C(C)(C)C)c[nH]1` displayed a melting point of 155 to 156 °C.

For the molecule `CCOC(=O)c1cnn2c(-c3ccc(C)c(C)c3)ccnc12`, the melting point lay within 187 to 188 °C.

In turn, `CC(C)c1ccccc1N1/C(=N\N=C/c2ccc(-c3ncn(-c4ccc(OC(F)(F)F)cc4)n3)cc2)SCC1(O)c1ccccc1C(F)(F)F` (stereo not drawn) returned a melting point of 115 to 118 °C.

`CCCc1nc(N2CCOCC2)c2cscc2n1` came in with a melting point of 102 to 105 °C.

For the molecule `O=C(Nc1cccc2c1ncc1c(=O)n3ccnc3sc12)c1c(Cl)cccc1Cl`, the melting point is over 250 °C.

Turning to `Clc1cc2c(s1)-n1c(nnc1CN1CCOCC1)CN=C2c1ccccc1Cl`, the melting point lay in the range of 224 to 226 °C.

For `O=c1ncc(Cl)cn1COc1ccccc1`, the melting point was determined as 146 °C.

Molecule `O=C(CN1CCC(Cc2ccccc2)CC1)Nc1ccc2c(c1)OCC(=O)N2` returned a melting point of 184 to 188 °C.

`CCCCCn1c(C#N)ccc1-c1ccc2c(c1)C(C)(C)OC(=O)N2` displayed a melting point of 128 to 131 °C.

As to `COc1ccc(C(=O)c2cccc(CC(=O)O)c2N)cc1`, the melting point fell in the range of 117 to 118 °C.

`O=C1C=c2c(c3c4ccccc4oc3c3[nH]c4ccccc4c23)=N1`: the melting point was over 300 °C.

For `N#Cc1cccc(CN2CCC(c3ccc(NC(=O)c4ccccc4-c4ccc(C(F)(F)F)cc4)cc3)CC2)c1`, the melting point was 124 to 126 °C.

As for `CC1(C)C=C(c2ccccn2)c2ccc(C#N)cc2OC1`, the melting point was 132 °C.

Molecule `c1ccc(-c2cn3ncsc3n2)cc1` displayed a melting point of 127 to 130 °C.

As for `O=C(O)c1cc([N+](=O)[O-])c(-c2ccncc2)[nH]c1=O`, the melting point was over 300 °C.

`CCOC(=O)c1c(C)nn(C)c1SCc1ccccc1` showed a melting point of 55 to 56 °C.

Take `CC(C)(C)OC(=O)N1CCN(Cc2ccccc2)C(=S)C1`: the melting point is 126 to 129 °C.

`CN1C(=O)CC(c2ccccc2)C1C(O)C=Cc1ccc(F)cc1` (stereo not drawn) had a melting point of 189 to 191 °C.

With `FC(F)(F)c1cc(CBr)c(C(F)(F)F)cc1CBr`, the melting point is 80 to 81 °C.

Take `Clc1ccc(-c2ccc(OCCCBr)cc2)cc1`: the melting point fell in the range of 103 to 105 °C.

Regarding `CNc1c([N+](=O)[O-])cc2c(=O)c(C(=O)O)cn(-c3cc(N)c(F)cc3F)c2c1C`, the melting point lay in the range of 275 to 281 °C.

Regarding `CC1(C)CCC(C)(C)c2cc3c(cc21)CCc1cc(-c2ccc(C(=O)O)cc2)oc1-3`, the melting point fell in the range of 264 to 265 °C.

Turning to `CCCNC(=O)C1CC(=O)N(c2cc(C(F)(F)F)cc(C(F)(F)F)c2)C1` (stereo not drawn), the melting point is 152 to 154 °C.

Consider `CCCCCOC(=O)Nc1ccc(CN2C(=O)CCc3c(CC4SC(=O)NC4=O)ccc(OC)c32)cc1` (stereo not drawn), for which the melting point lay in the range of 98 to 102 °C.

Consider `COc1cccc2c1C13CCN(C)C(C2)C1(O)CCC(=O)C3` (stereo not drawn), for which the melting point was 191 to 193 °C.

Turning to `CN1Cc2c(-c3nc(CCl)co3)ncn2-c2ccccc2C1=O`, the melting point lay within 196 to 198 °C.

As for `CC1CC(C)OP(=O)(Cc2ccc(N)cc2)O1` (stereo not drawn), the melting point lay in the range of 160 to 161 °C.

Turning to `Cc1c(C(=O)Nc2ccc(N3CCC(=O)CC3)c(C#N)c2)cnn1-c1ccc(Cl)cc1`, the melting point came out at 238 °C.

Consider `CC#Cc1cc(C)c(C2=C(O)C3(CCN(OC)CC3)N(C)C2=O)c(C)c1`, for which the melting point is over 240 °C.

Consider `Cc1cc(-c2ccc(O)cc2)ccc1C=NO`, for which the melting point was in the range of 195 to 197 °C.

On to `COC(=O)c1cc(Cl)c2cccc(OC)c2n1`, for which the melting point lay within 139 to 141 °C.

`CC(=O)N(C(C)=O)c1cc2c(cc1C)N(C(C)=O)c1ccc(N(C)C)cc1N2C(C)=O` yielded a melting point of 231 to 234 °C.

Turning to `CCCCc1c(CNC(=O)OC(C)(C)C)c(CC(C)C)nc2ccc(O)cc12`, the melting point lay in the range of 198 to 200 °C.

`Nc1nc2c(sc(=O)n2C2CC(O)C(CO)O2)c(=O)[nH]1` (stereo not drawn) came in with a melting point of over 170 °C.

On to `O=c1c2c(CBr)c(-c3ccc([N+](=O)[O-])cc3)sc2n(Cc2c(F)cccc2F)c(=O)n1-c1ccccc1`, for which the melting point fell in the range of 228 to 229 °C.

The molecule `Cc1oc(-c2ccccc2)nc1COc1ccccc1COc1cccc(CC(=O)O)c1` had a melting point of 104 to 105 °C.
